Here are results for six molecules from patent US10588896B2, “Agents for the treatment of retroviral infectious diseases” (IMMUNOLOGIK GMBH, priority 2014, dated 2020).

Entries after “also recorded” stand apart in the source; their conditions may differ. Where two headings read alike, the source gives them in different places.

The test system of one series is HIV-1NL4-3 (R5 tropic). The series can be described thus: HIV-1 replication in infected PBMC cultures (macrophages), reverse transcriptase activity in supernatant. In kind it is cell-based. The settings on record: for reduction of the HIV-1 replication capacity: 5 donors. An excerpt: As could be shown in the preceding example that PR-619 inhibits the late processes in Gag processing this effect on the spread of infection was investigated. According to the invention, isolated primary human peripheral blood mononuclear cell (PBMC) cultures were infected to this aim with the virus strain HIV-1NL4-3(X4 tropic) or HIV-1 NLNL4-3(R5 tropic). One day after infection cells were washed with PBS (phosphate buffer saline), provided with fresh medium containing the DUB inhibitor PR-619 in several non-cytotoxic concentrations (3.5 μM, 7 μM, 14 μM, 28 μM). The treatment with DUB inhibitors was carried out over the entire experimental period (“permanent treatment”) or only on Day 1 and Day 3 after infection (“structured treatment”). In the infection with HIV-1NL4-3 (R5 tropic), only a permanent treatment was performed. Each 2-3 days samples from the cell culture supernatants were taken, frozen and later on used for determining reverse transcriptase activity. Concomitantly, 80% of the cell culture medium was replaced and fresh PR-619 was added. Reverse transcriptase activity (ccpm) was determined in the cell-free cell culture supernatants and plotted against time (FIGS. 4A and 4B; the black arrows indicate the treatment with PR-619).
In permanent treatment 3.5 μM yielded a reduction by 35%(±8%), 7 μM a reduction by 60%(±9%) and 14 μM by 100%.
For comparative purposes, the anti-retroviral effect found for PR-619 was compared with three other DUB inhibitors P005091, WP1130 and P22077. Experiments were carried out as described in Example 2.
In order to clarify the question whether a combined permanent treatment with PR-619 and the proteasome inhibitor bortezomib (Velcade®) causes a synergistic effect on the replication capacity of HIV-1, a cross titration was carried out with both substances (analogous to Example 2 and 3). Herein, PBMC cultures were treated permanently after infection with the virus strain HIV-1NL4-3, first only with the DUB inhibitor PR-619 or with the proteasome inhibitor bortezomib in non-toxic increasing concentrations (PR-619: 0.3 μM, 0.9 μM, 2.75 μM and 8 μM; bortezomib: 0.6 nM, 1.5 nM, 5.3 nM and 16 nM).
Herein, the cells were treated permanently with constantly 0.6 nM bortezomib and increasing concentrations of PR-619 (0.3 μM, 0.9 μM, 2.7 μM and 8 μM). Experiments were carried out as described in Example 2. […] The DUB inhibitor PR-619 is able to inhibit the HIV-1 replication beginning with a concentration of 2.7 μM (FIG. 12B).

The subject of a further series is HIV-1NL4-3 (X4 tropic). The series can be described thus: HIV-1 replication in infected PBMC cultures (T cells), reverse transcriptase activity in supernatant. In kind it is cell-based. The settings on record: for concentration beginning with which HIV-1 replication is inhibited / HIV-1 replication / inhibition of the HIV-1 replication / reduction of the HIV-1 replication capacity (AUC): T cells; for concentration beginning with which HIV-1 replication is inhibited: substance alone; for HIV-1 replication: structured and permanent treatment; for reduction of the HIV-1 replication capacity (AUC): 6 donors. The method, then:
According to the invention, isolated primary human peripheral blood mononuclear cell (PBMC) cultures were infected to this aim with the virus strain HIV-1NL4-3(X4 tropic) or HIV-1 NLNL4-3(R5 tropic). […] The treatment with DUB inhibitors was carried out over the entire experimental period (“permanent treatment”) or only on Day 1 and Day 3 after infection (“structured treatment”). In the infection with HIV-1NL4-3 (R5 tropic), only a permanent treatment was performed. Each 2-3 days samples from the cell culture supernatants were taken, frozen and later on used for determining reverse transcriptase activity. Concomitantly, 80% of the cell culture medium was replaced and fresh PR-619 was added. Reverse transcriptase activity (ccpm) was determined in the cell-free cell culture supernatants and plotted against time (FIGS. 4A and 4B; the black arrows indicate the treatment with PR-619).
For six different donors the area under the curve (AUC) in the HIV-1 replication profiles after infection of PBMCs with T-cell tropic virus was determined, representing the HIV-1 replication capacity.
Experiments were carried out as described in Example 2. […]

Series [1] has as its system HIV-1NL4-3 (X4-tropic) or HIV-1NL4-3 (R5-tropic). Description: HIV-1 replication in human lymphoid aggregate culture (HLAC) ex vivo tonsillar tissue. The settings on record: for reduction of the HIV-1 replication capacity: T cells and macrophages, permanent treatment, 3 replication profiles. In kind it is cell-based. The procedure: In order to substantiate the inhibition of the HIV replication under treatment with PR-619, as observed in Example 2, according to the invention human ex vivo cultivated tonsillar tissue was infected with the virus strain HIV-1NL4-3 (X4-tropic) or HIV-1NL4-3 (R5-tropic). The experiments were carried out as described in Example 2.

The test system of series [2] is HIV-1 Gag structure proteins. The series can be described thus: Western Blot analysis of HIV-1 Gag processing in HeLa cells transfected with pNLΔenv (cell and VLP fraction). The class given is cell-based. The procedure:
In order to investigate whether PR-619 and its derivatives inhibit the processing of HIV-1 Gag structure proteins, Western Blot (WB) analyses were carried out. Therefore, HeLa cell cultures were transfected with the pNLΔenv plasmid which encodes for HIV-1 proteins excluding the env envelope proteins. This enables the production of virus-like particles (VLPs), an established in vitro model in HIV-1 research. 24 h after transfection the cells were transferred to reaction vessels, and a pre-incubation with PR-619 for 1 h was performed. Thereupon, the cells were washed three times with PBS and incubated for 4 h in fresh RPMI medium either with 20 μM PR-619 (Merck-Millipore) or with the corresponding amount of DMSO as solvent control at 37° C.
Then a separation into a cell and a VLP fraction was effected by means of centrifugation. VLPs were purified from the cell culture supernatants via a 20% sucrose cushion. Cells were then washed with PBS and lysed with RIPA buffer. Protein concentrations were determined by means of Bradford protein assays and assimilated for the respective lysates. […]
A densitometric evaluation of Gag processing in the VLP fraction was carried out with the analysis program AIDA®. The densitometric evaluation allows for the quantification of signal intensities in Western Blot and thus conclusions on the quantity of a certain protein in the sample. […]
On the technique in general: In western blotting, separated proteins are transferred to a membrane and probed.

Series [3] concerns MHC-I antigen presentation of Gag-derived epitopes. Description: MHC-I antigen presentation of Gag-derived SL epitope in HeLa-Kb cells, FACS with mAB 25D1.16. The note with it: HeLa-Kb cells transfected with Gag-SL, 7 and 14 μM, dose-dependent. In kind it is cell-based, human. An excerpt: Since there is no conformation-dependent MHC-I specific antibody that could detect Gag epitopes bound to human MHC-I molecules the ovalbumin-derived sequence […] (SL) was introduced as a model epitope into the non-structured SP1 spacer region of Gag. For measuring the MHC-I antigen presentation, HeLa cells constitutively expressing the murine SL-binding MHC-I allotype H2-Kb (HeLa-Kb) (Porgador et al., 1997, Immunity 6(6), 715-726) were transfected with expression plasmids coding for Gag-SL proteins. Performing flow cytometric analyses the monoclonal antibody (mAB) 25D1.16 was used which recognizes specifically SL in the complex with H2-Kb.
24 h after transfection the cells were incubated overnight with different concentrations of the DUB inhibitor PR-619 (7 and 14 μM).
Then, an acid wash (acid washing buffer pH 3) was carried out for removing the H2-Kb-SL complexes from the cell surface. Thereafter, the cells were incubated with and without PR-619 for 4 h at 37° C. and then the newly loaded H2-Kb-SL complexes at the cell surface under inhibition with PR-619 were determined by FACS analysis with the monoclonal AB 25D1.16. For compensating possible differences in the expression level of Gag-SL, the mean fluorescence intensity (MFI) of the 25D1.16 staining was normalized to the MFI of the intracellular Gag signal.

In another series the test system is HLAC cultures. The series can be described thus: WST assay cytotoxicity in HLAC cultures from ex vivo tonsillar tissue. The class given is cell-based, human.

Consider `CC(C)C[C@H](NC(=O)[C@H](Cc1ccccc1)NC(=O)c1cnccn1)B(O)O` [bortezomib, reference compound], for which the “reduction in living cells” value in the series with PBMC cultures (16 nM, permanent treatment) is listed as 60%. Besides, the “toxicity (WST assay)” value in the series with PBMC cultures (0.6-5.3 nM, permanent treatment) is listed as “did not display any toxicity”. The “concentration beginning with which HIV-1 replication is inhibited” value stood at 5.3 nM with HIV-1NL4-3 (R5 tropic) (permanent treatment, substance alone) and 5.3 nM in the series with HIV-1NL4-3 (X4 tropic) (permanent treatment).

On to `COc1ccc(C[C@H](NC(=O)[C@H](C)NC(=O)CN2CCOCC2)C(=O)N[C@@H](Cc2ccccc2)C(=O)[C@@]2(C)CO2)cc1` [PR-957, reference compound], for which the “toxicity (WST assay)” value in the series with PBMC cultures (20-160 nM, permanent treatment) was “did not display any toxicity”. Moreover, the “concentration beginning with which HIV-1 replication is inhibited” value in the series on HIV-1NL4-3 (X4 tropic) (permanent treatment) was found to be 80 nM.

With `CC(=O)c1cc([N+](=O)[O-])c(Sc2cccc(Cl)c2Cl)s1` [P005091, 1-[5-[(2,3-dichlorophenyl)thio]-4-nitro-2-thienyl]-ethanone, reference compound], the “toxicity (WST assay)” value with PBMC cultures (0.75-3 μM, day 13) is “shows no toxicity”. Besides, the HIV-1 replication entry is given as “does not inhibit HIV-1 replication” with HIV-1NL4-3 (R5 tropic) (0.75 μM, 1.5 μM and 3 μM); “does not inhibit HIV-1 replication” in the series with HIV-1NL4-3 (X4 tropic) (0.75 μM, 1.5 μM and 3 μM).

For the molecule `CC(=O)c1cc([N+](=O)[O-])c(Sc2ccc(F)cc2F)s1` [P22077, reference compound], in the series with PBMC cultures (7.5 μM, 15 μM, 30 μM and 60 μM), the “general cytotoxic damage of the host cell” value is recorded as “does not exist”. Further, the HIV replication entry with HIV-1NL4-3 (X4 tropic) (7.5 μM, 15 μM, 30 μM and 60 μM) is “nearly complete inhibition of HIV replication”.

Turning to `N#CSc1cc(SC#N)c(N)nc1N` [PR-619, 2,6-diaminopyridine-3,5-bis(thiocyanate)], the “inhibitory effect on the HIV-1 replication” value in series [1] (1.25 μM) is given as “did not exert an inhibitory effect”. The “inhibition of the replication” value in series [1] (2.5 μM, 5 μM and 10 μM) was “clear, respectively complete inhibition of the replication”. The “reduction of the HIV-1 replication capacity” value in series [1] (2.5 μM) is on record as 40%(±9%); in series [1] (5 μM), 86%(±2%); in series [1] (10 μM) it was “completely”; with HIV-1NL4-3 (R5 tropic) (permanent treatment, 3.5 μM) it was 35%(±8%); in the series with HIV-1NL4-3 (R5 tropic) (permanent treatment, 7 μM), 60%(±9%); in the series with HIV-1NL4-3 (R5 tropic) (permanent treatment, 14 μM), 100%. Moreover, the “Gag processing (Western Blot)” value in series [2] (20 μM PR-619, 4 h, HeLa cells transfected with pNLΔenv) was “significantly inhibits Gag processing”. Besides, the “generation of the main Gag processing product CA (densitometric evaluation, VLP fraction)” value in series [2] (20 μM PR-619, VLP fraction) is “clearly inhibited”. The “concentration at which a clear toxic effect starts” value in the series with PBMC cultures (PBMC, 15 days) came out at 28 µM. For the same molecule, the “toxic effect (WST assay)” value with PBMC cultures (antivirally effective concentrations, observation period of 15 days) is “did not display any significant toxic effect; also recorded: does not display a significant toxic effect”; in the series on PBMC cultures (highest used concentration of 8 μM, permanent treatment) it was “did not show either a clear toxic effect”; with HLAC cultures (all applied antiretrovirally effective concentrations, 15 days), “did not display any significant toxic effect”. The “increase of MHC-I antigen presentation of Gag-derived epitopes” value in series [3] stood at 6 fold. In addition, in the series with HIV-1NL4-3 (X4 tropic) (PBMC), the “antiviral efficacy (concentration)” value is reported as “about 3.5 μM”. For the same molecule, the “inhibition of the HIV-1 replication” value in the series with HIV-1NL4-3 (X4 tropic) (3.5 μM, permanent treatment) was “complete”; in the series with HIV-1NL4-3 (X4 tropic) (3.5 μM, structured treatment), “clear”. The “reduction of the HIV-1 replication capacity (AUC)” value is reported as 50%(±16%) in the series with HIV-1NL4-3 (X4 tropic) (permanent treatment, 3.5 μM); 97%(±15%) in the series with HIV-1NL4-3 (X4 tropic) (permanent treatment, 7 μM); 100% in the series with HIV-1NL4-3 (X4 tropic) (permanent treatment, 14 μM); 23%(±14%) in the series with HIV-1NL4-3 (X4 tropic) (structured treatment, 3.5 μM); 94%(±14%) with HIV-1NL4-3 (X4 tropic) (structured treatment, 7 μM); 100% with HIV-1NL4-3 (X4 tropic) (structured treatment, 14 μM). In addition, in the series on HIV-1NL4-3 (X4 tropic) (permanent treatment), the “concentration beginning with which HIV-1 replication is inhibited” value amounted to 2700 nM. In addition, the “toxic effects (WST assay)” value in the series on HLAC cultures (highest concentration of 10 μM) is reported as “no toxic effects were observed”.

Consider `CCC[C@H](NC(=O)/C(C#N)=C/c1cccc(Br)n1)c1ccccc1` [WP1130, (2E)-3-(6-bromo-2-pyridinyl)-2-cyano-N-[(1S)-1-phenylbutyl]-2-propenamide, reference compound], for which the “toxicity (WST assay)” value with PBMC cultures (concentration >3 μM, day 13) is listed as “complete death of the cells”. Also, in the series with PBMC cultures (permanent treatment, 3 μM, day 13), the “reduction in living cells” value is reported as 40%. In addition, the HIV-1 replication result was “no significant reduction of the HIV-1 replication” with HIV-1NL4-3 (R5 tropic) (3 μM and 6 μM); “no significant reduction of the HIV-1 replication” with HIV-1NL4-3 (X4 tropic) (3 μM and 6 μM).
